Measurements published in patent US7732435B2, “Chromone derivatives useful as antagonists of VR1 receptors” (Novartis AG, priority 2005, dated 2010).
Where two headings read alike, the source gives them in different places.

Target: TRPV1 receptor (UniProt Q8NER1)
Assay: Calcium mobilisation assay in CHO-K1 cells expressing the TRPV1 receptor (inhibition of capsaicin or low pH activation)
Format: cell-based, human, rat or guinea pig
Settings: species not specified
Experimental: Chinese Hamster Ovary-K1 (CHO-K1) cells, transfected to express either the human, rat or guinea pig TRPV1 receptor, were grown in Minimal Essential Media (MEM) alpha medium without nucleosides supplemented with fetal calf serum (10%), 2 mM L-glutamine, 100 IU/mL penicillin, 100 μg/ml streptomycin and 350-700 μg/ml geneticin. All reagents were supplied by Invitrogen. Cells were grown in T-175 flasks or Costar black, clear-bottomed 96-well view plates and maintained at 37° C. in a 90% humidified incubator with an atmosphere of 5% CO2 and 95% air. The cells were passaged twice a week at a ratio of 1:10 to 1:20 to maintain steady growth. For experimentation, cells were harvested at approximately 80% confluency and plated onto view plates at 40,000 cells per well in 100 μL media and grown overnight.
Calcium Mobilisation Assay […]

IC50 (TRPV1 stimulated by capsaicin at EC80 concentration, read-out: IC50 (capsacin)): 68 nM
IC50 (TRPV1 stimulated by low pH, final pH 5.5, read-out: IC50 (pH 5.5)): 54 nM
Compound: CC(C)c1oc2c(ccc3[nH]c(C(C)(F)F)nc32)c(=O)c1-c1ccc(Cl)cc1 [Example 8, 7-(4-Chlorophenyl)-2-(1,1-difluoroethyl)-8-isopropyl-3H-chromeno[7,8-d]imidazol-6-one]
